Experimental data from patent publication US20260125382A1, “COMPOUNDS FOR INHIBITING OR DEGRADING CDK2 AND/OR CDK9 AND MEDICINAL USE THEREOF” (KOREA RESEARCH INSTITUTE OF CHEMICAL TECHNOLOGY, priority 2022, published 2026).

How the values were obtained:
CDK2 = target: T1, CDK2 (Homo sapiens, UniProt P24941); assay: CDK protein degradation activity (Western blotting), CDK2; format: cell-based; details: MDA-MB-231 cells, 16 hours, Western blot
T1 construct: endogenous in cells; host or cells: MDA-MB-231
Summary of the method: (§1)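 MDA-MB-231; cmpd 100 nM / 1 μM / 10 μM final vs DMSO, 16 h. Triton X-100 lysates (pH 7.5, phosphatase/protease inhibitors) → SDS-PAGE → Western blot, anti-CDK2, anti-CDK9, tubulin loading control; densitometry.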

CDK9 = target: T2, CDK9 (Homo sapiens, UniProt P50750); assay: CDK protein degradation activity (Western blotting), CDK9; format: cell-based; details: MDA-MB-231 cells, 16 hours, Western blot
T2 construct: endogenous in cells; host or cells: MDA-MB-231
Summary of the method: as §1

T2 sequence (P50750 whole entry): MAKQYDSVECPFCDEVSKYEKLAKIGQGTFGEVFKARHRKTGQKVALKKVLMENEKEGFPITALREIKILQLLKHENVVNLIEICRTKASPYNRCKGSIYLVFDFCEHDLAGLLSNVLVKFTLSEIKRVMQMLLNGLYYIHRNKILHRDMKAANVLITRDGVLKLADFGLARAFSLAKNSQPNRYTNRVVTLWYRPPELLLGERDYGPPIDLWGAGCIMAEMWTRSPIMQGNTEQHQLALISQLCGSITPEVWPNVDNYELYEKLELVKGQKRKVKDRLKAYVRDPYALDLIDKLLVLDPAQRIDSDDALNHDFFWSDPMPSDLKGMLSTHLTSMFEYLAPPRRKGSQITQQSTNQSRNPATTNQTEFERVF

Row | Compound | Enzyme degradation CDK2 (% remaining) @ 0.1 μM (CDK2) | Enzyme degradation CDK2 (% remaining) @ 1 μM (CDK2) | Enzyme degradation CDK2 (% remaining) @ 10 μM (CDK2) | Enzyme degradation CDK9 (% remaining) @ 0.1 μM (CDK9) | Enzyme degradation CDK9 (% remaining) @ 1 μM (CDK9) | Enzyme degradation CDK9 (% remaining) @ 10 μM (CDK9)
1 | Cc1cccc(C(=O)N[C@H]2C[C@@H](n3cnc4c(Nc5ccc(N6CCN(CC7CCN(c8cc9c(cc8F)C(=O)N([C@H]8CCC(=O)NC8=O)C9=O)CC7)CC6)cc5)ncnc43)C2)n1 [Compound 377, N-((1s,3s)-3-(6-((4-(4-((1-(2-(2,6-dioxopiperidin-3-yl)-6-fluoro-1,3-dioxoisoindolin-5-yl)piperidin-4-yl)methyl)piperazin-1-yl)phenyl)amino)-9H-purin-9-yl)cyclobutyl)-6-methylpicolinamide] | 20% | 10% | 10% | 0/0/0% | 0/0/0% | 0/0/0%
2 | Cc1cccc(C(=O)NC2CC(n3cnc4c(Nc5ccc(N6CCN(CC7CCN(C(=O)CNc8ccc9c(c8)C(=O)N([C@H]8CCC(=O)NC8=O)C9=O)CC7)CC6)cc5)ncnc43)C2)n1 (stereo partly drawn) [Compound 92, N-((1s,3s)-3-(6-((4-(4-((1-((2-(2,6-dioxopiperidin-3-yl)-1,3-dioxoisoindolin-5-yl)glycyl)piperidin-4-yl)methyl)piperazin-1-yl)phenyl)amino)-9H-purin-9-yl)cyclobutyl)-6-methylpicolinamide] | 40% | 20% | 20% | 10% | 0% | 0%
3 | Cc1cccc(C(=O)N[C@H]2C[C@@H](n3cnc4c(NC5CCN(CCC6CCN(C(=O)CNc7ccc8c(c7)C(=O)N([C@H]7CCC(=O)NC7=O)C8=O)CC6)CC5)ncnc43)C2)n1 (racemic) [Compound 33, N-((1s,3s)-3-(6-((1-(2-(1-((2-(2,6-dioxopiperidin-3-yl)-1,3-dioxoisoindolin-5-yl)glycyl)piperidin-4-yl)ethyl)piperidin-4-yl)amino)-9H-purin-9-yl)cyclobutyl)-6-methylpicolinamide] | 40% | 30% | 50% | 0/0/0% | 0/0/0% | 0/0/0%
4 | O=C1CC[C@H](N2C(=O)c3ccc(N4CC(C(=O)N5CCC6(CC5)CC(N5CCN(c7ccc(Nc8ncnc9c8ncn9[C@H]8C[C@@H](NC(=O)Cc9ccccc9)C8)cc7)CC5)C6)C4)cc3C2=O)C(=O)N1 [Compound 352, N-((1s,3s)-3-(6-((4-(4-(7-(1-(2-(2,6-dioxopiperidin-3-yl)-1,3-dioxoisoindolin-5-yl)azetidin-3-carbonyl)-7-azaspiro[3.5]nonan-2-yl)piperazin-1-yl)phenyl)amino)-9H-purin-9-yl)cyclobutyl)-2-phenylacetamide] | 90% | 70% | 70% | 20/20/20% | 20/20/20% | 20/20/20%
5 | O=C1CCN(c2coc3cc(C(=O)N4CCC(CN5CCN(c6ccc(Nc7ncnc8c7ncn8[C@H]7C[C@@H](NC(=O)Cc8ccccc8)C7)cc6)CC5)CC4)ccc23)C(=O)N1 [Compound 187, N-((1s,3s)-3-(6-((4-(4-((1-(3-(2,4-dioxotetrahydropyrimidin-1(2H)-yl)benzofuran-6-carbonyl)piperidin-4-yl)methyl)piperazin-1-yl)phenyl)amino)-9H-purin-9-yl)cyclobutyl)-2-phenylacetamide] | 30% | 10% | 20% | 10% | 0% | 0%
6 | Cc1cccc(C(=O)N[C@H]2C[C@@H](n3cnc4c(NCc5cccc(OCCCN6CCN(C(=O)CNc7ccc8c(c7)C(=O)N([C@H]7CCC(=O)NC7=O)C8=O)CC6)c5)ncnc43)C2)n1 [Compound 102, N-((1s,3s)-3-(6-((3-(3-(4-((2-(2,6-dioxopiperidin-3-yl)-1,3-dioxoisoindolin-5-yl)glycyl)piperazin-1-yl)propoxy)benzyl)amino)-9H-purin-9-yl)cyclobutyl)-6-methylpicolinamide] | 100% | 70% | 70% | 90% | 20% | 10%
7 | Cc1cccc(C(=O)N[C@H]2C[C@@H](n3cnc4c(NCc5cccc(OCCCN6CCN(C(=O)CNc7cccc8c7C(=O)N([C@H]7CCC(=O)NC7=O)C8=O)CC6)c5)ncnc43)C2)n1 [Compound 103, N-((1s,3s)-3-(6-((3-(3-(4-((2-(2,6-dioxopiperidin-3-yl)-1,3-dioxoisoindolin-4-yl)glycyl)piperazin-1-yl)propoxy)benzyl)amino)-9H-purin-9-yl)cyclobutyl)-6-methylpicolinamide] | 40% | 40% | 60% | 30% | 10% | 10%
8 | O=C1CCC(N2C(=O)c3cccc(OCC(=O)N4CCC5(CC4)CC(N4CCC(c6ccc(Nc7ncnc8c7ncn8[C@H]7C[C@@H](NC(=O)Cc8ccccc8)C7)cc6)CC4)C5)c3C2=O)C(=O)N1 (stereo partly drawn) [Compound 293, N-((1s,3s)-3-(6-((4-(1-(7-(2-((2-(2,6-dioxopiperidin-3-yl)-1,3-dioxoisoindolin-4-yl)oxy)acetyl)-7-azaspiro[3.5]nonan-2-yl)piperidin-4-yl)phenyl)amino)-9H-purin-9-yl)cyclobutyl)-2-phenylacetamide] | 0/0/0% | 0/0/0% | 0/0/0% | 0/0/0% | 0/0/0% | 0/0/0%
9 | O=C1CC[C@H](N2C(=O)c3ccc(N4CCC(C(=O)N5CCN(CCC6CCN(c7ccc(Nc8ncnc9c8ncn9[C@H]8C[C@@H](NC(=O)Cc9ccccc9)C8)cc7)CC6)CC5)CC4)cc3C2=O)C(=O)N1 [Compound 363, N-((1s,3s)-3-(6-((4-(4-(2-(4-(1-(2-(2,6-dioxopiperidin-3-yl)-1,3-dioxoisoindolin-5-yl)piperidin-4-carbonyl)piperazin-1-yl)ethyl)piperidin-1-yl)phenyl)amino)-9H-purin-9-yl)cyclobutyl)-2-phenylacetamide] | 100% | 50% | 30% | 40% | 0% | 0%
10 | COc1ccc(C(=O)N2CCC(CCCN3CCN(c4ccc(Nc5ncnc6c5ncn6[C@H]5C[C@@H](NC(=O)Cc6ccccc6)C5)cc4)CC3)CC2)cc1N1CCC(=O)NC1=O [Compound 257, N-((1s,3s)-3-(6-((4-(4-(3-(1-(3-(2,4-dioxotetrahydropyrimidin-1(2H)-yl)-4-methoxybenzoyl)piperidin-4-yl)propyl)piperazin-1-yl)phenyl)amino)-9H-purin-9-yl)cyclobutyl)-2-phenylacetamide] | 0% | 20% | 20% | 80% | 50% | 50%
11 | O=C1CCC(c2cccc(OCC(=O)N3CCC4(CC(N5CCN(c6ccc(Nc7ncnc8c7ncn8[C@H]7C[C@@H](NC(=O)Cc8ccccc8)C7)cc6)CC5)C4)C3)c2)C(=O)N1 (stereo partly drawn) [Compound 269, N-((1s,3s)-3-(6-((4-(4-(6-(2-(3-(2,6-dioxopiperidin-3-yl)phenoxy)acetyl)-6-azaspiro[3.4]octan-2-yl)piperazin-1-yl)phenyl)amino)-9H-purin-9-yl)cyclobutyl)-2-phenylacetamide] | 10/10/10% | 10/10/10% | 10/10/10% | 30% | 10% | 10%
12 | O=C1CC[C@H](N2C(=O)c3cc(F)c(N4CCC(CN5CCN(c6ccc(Nc7ncnc8c7ncn8C7CC(NC(=O)c8cccc(C(F)(F)F)n8)C7)cc6)CC5)CC4)cc3C2=O)C(=O)N1 (stereo partly drawn) [Compound 415, N-((1s,3s)-3-(6-((4-(4-((1-(2-(2,6-dioxopiperidin-3-yl)-6-fluoro-1,3-dioxoisoindolin-5-yl)piperidin-4-yl)methyl)piperazin-1-yl)phenyl)amino)-9H-purin-9-yl)cyclobutyl)-6-(trifluoromethyl)picolinamide] | 20/20/20% | 20/20/20% | 20/20/20% | 10/10/10% | 10/10/10% | 10/10/10%
13 | Cc1cccc(C(=O)N[C@H]2C[C@@H](n3cnc4c(NCc5ccc(OCC6CCN(C(=O)CNc7cccc8c7C(=O)N([C@H]7CCC(=O)NC7=O)C8=O)CC6)cc5)ncnc43)C2)n1 [Compound 109, N-((1s,3s)-3-(6-((4-((1-((2-(2,6-dioxopiperidin-3-yl)-1,3-dioxoisoindolin-4-yl)glycyl)piperidin-4-yl)methoxy)benzyl)amino)-9H-purin-9-yl)cyclobutyl)-6-methylpicolinamide] | 40% | 60% | 70% | 0/0/0% | 0/0/0% | 0/0/0%
